In the NIST ThermoML archive (doi:10.1016/j.fluid.2011.07.014):

Conditions: Liquid, Ebulliometric method (Recirculating still)

CC(C)=C(C)C [2,3-dimethyl-2-butene]
Conditions | vapor or sublimation pressure [kPa]
336.5 K | 73.5
338.2 K | 77.5
340.6 K | 84.2
342.65 K | 90.2
344.2 K | 94.7
346.24 K | 101.2
347.65 K | 105.3
350.1 K | 113.9
353.46 K | 125.5
355.35 K | 133.3
357.22 K | 140.4
362.8 K | 164.8
365.76 K | 179.5
368.05 K | 190.9
370.36 K | 202.8
373.18 K | 218.8
375.2 K | 230.4
376.5 K | 238.5
379.15 K | 255.1
381.62 K | 271.2
383.05 K | 281.3
384.7 K | 292.1
386.65 K | 306.8
388.2 K | 318.4
